Experimental data from patent US12018006B2, “Method of producing EPD and analogues thereof” (priority 2017, dated 2024).

Legend:
[1] = tested on: ovarian cancer cell line JC; assay: In vitro cytotoxic activity, Presto blue assay, ovarian cancer cell line JC; format: cell-based
Protocol: (§1) The cytotoxic activity of the compounds was tested using methods as described earlier (van Haaften et al. Journal of Experimental & Clinical Cancer Research (2015) 34:38). In short, 3×10^4 cells of the ovarian cancer cell line JC (Van Haaften-Day et al. Cancer Res. 1983) were seeded in 24-well plates (Costar, Denmark) in DMEM/F12 medium (Invitrogen) containing 10% of Fetal Calf Serum (FCS, Sigma), 50 U penicillin and 50 μg/mL streptomycin (Invitrogen). The cells were incubated at 37° C. in a 9% CO2 incubator with 95% humidity. After 24 hours, solutions 1-6 were added to the cell cultures.
(§2) Cytotoxic activity of each of the compounds was determined after 72 hours in a standard Presto blue assay (see Van Haaften et al. J Exp Clin Cancer Res. 2015 34(1): 38 for details on the method). Each compound's solution as described above was diluted 100, 200 and 400 times respectively.

[2] = tested on: ovarian cancer cell line A2780AD; assay: Growth of multi-drug resistant ovarian cancer cell line A2780AD after 72 hrs; format: cell-based, human; conditions: for growth of the cell line, % of the control value: 72 hrs, control (medium) = 100%
Protocol: as §1, §2
Also the effect of synthetic EPD was tested on an ovarian cancer cell line A2780AD, ATCC using methods as described above, whereby the experiment was ended after 72 hrs. Cell line A2780AD, a multi-drug resistant human ovarian cancer cell line, is resistant to paclitaxel. It was shown that at 1, 1.5 and 2 μg/mL of synthetic EPD, the growth of the cell line after 72 hrs was reduced to 40%, 13% and 8% of the control value (100%, medium), respectively.

[3] = tested on: cervical cancer cell line Siha; assay: Effect of synthetic EPD on growth of cervical cancer cell line Siha; format: cell-based; conditions: for cancer cell growth reduced by: Siha, FIG. 1B
Protocol: (§3) Further, the effect of synthetic EPD (1-3 μg/mL) was studied on normal fibroblasts and compared with the effect on a cervical cancer cell line Siha (FIG. 1B). […] At a concentration of 1 μg/mL, fibroblast growth was unaffected, whereas cancer cell growth was reduced by almost 20%. At a concentration of […], fibroblast growth was reduced by almost 20%, whereas cancer cell growth was reduced by more than 80%, and at a concentration of 3 μg/mL, fibroblast growth was reduced by 35%, whereas cancer cell growth was reduced by almost 97%.

[4] = tested on: normal fibroblasts; assay: Effect of synthetic EPD on growth of normal fibroblasts; format: cell-based; conditions: FIG. 1B
Protocol: as §3

[5] = tested on: ovarian cancer; conditions: cited from earlier work
[6] = tested on: normal cells; conditions: cited from earlier work

C=C1C(=O)O[C@H]2CC3=CCCC[C@]3(C)C[C@@H]12 (relative stereo) [racemic mixture of the (mono) methyl analogue, (rel3aS,4aR,9aS)-4α-methyl-3-methylene-3a,4,4a,5,6,7,9,9a-octahydronaphtho[2,3-b]furan-2(3H)-one]
cytotoxic activity ([1]; JC cells, 72 hours, solutions diluted 100, 200 and 400 times, FIG. 1A, compared with natural EPD): demonstrates cytotoxic activity

C=C1C(=O)O[C@@H]2CC3=CCC[C@H](C)[C@@]3(C)C[C@H]12 (single isomer, unassigned) [synthetic EPD, eremophila-1(10)-11(13)-dien-12,8β-olide]
growth of the cell line, % of the control value ([2]; 1 μg/mL): 40%
growth of the cell line, % of the control value ([2]; 1.5 μg/mL): 13%
growth of the cell line, % of the control value ([2]; 2 μg/mL): 8%
inhibition of JC cells compared with paclitaxel ([1]; JC as control cell line, FIG. 1C): at least as effective as paclitaxel
dose-dependent effect on cancer cells compared with fibroblasts ([3]; Siha vs normal fibroblasts, 1-3 μg/mL): much higher on cancer cells than on fibroblasts
cancer cell growth reduced by ([3]; synthetic EPD 1 μg/mL): ~20%
cancer cell growth reduced by ([3]; synthetic EPD 3 μg/mL): ~97%
cancer cell growth reduced by ([3]; synthetic EPD 2 g/mL): more than 80%
fibroblast growth ([4]; synthetic EPD 1 μg/mL): unaffected
fibroblast growth reduced by ([4]; synthetic EPD 2 μg/mL): ~20%
fibroblast growth reduced by ([4]; synthetic EPD 3 μg/mL): 35%

C=C1C(=O)O[C@@H]2CC3=CCC[C@H](C)[C@@]3(C)C[C@H]12 [EPD, eremophila-1(10)-11(13)-dien-12,8β-olide]
cytotoxic effects towards ovarian cancer [5]: potent cytotoxic effects
cytotoxic effects towards normal cells [6]: not towards normal cells

CC(=O)O[C@H]1C(=O)[C@@]2(C)[C@H]([C@H](OC(=O)c3ccccc3)[C@]3(O)C[C@H](OC(=O)[C@H](O)[C@@H](NC(=O)c4ccccc4)c4ccccc4)C(C)=C1C3(C)C)[C@]1(OC(C)=O)CO[C@@H]1C[C@@H]2O [paclitaxel, reference compound]
resistance of cell line A2780AD to the drug ([2]; 0.375 μg/mL): full resistance
